This passage reports IC50 results from US8673908B2, “Kynurenine production inhibitor” (Kyowa Hakko Kirin Co., Ltd., priority 2008, dated 2014).

The experiment relates to kynurenine production in IFN-γ-treated KATO-III cells. Kind of experiment: Inhibitory activity on kynurenine production (Test Example 1). The experiment is classed as cell-based. The conditions noted are these: Homo sapiens, IFN-γ treatment, culture for 96 hours, read-out: IC50 value, inhibition of kynurenine production. The essentials: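 KATO-III human gastric cancer cells (2,000/well, RPMI 1640 + 10% FBS) were cultured with compound and IFN-γ (31.25 ng/mL in the cell suspension), DMSO ≤0.1%, for 96 h at 37 °C, 5% CO2. Kynurenine was read at A480 after TCA at 65 °C and p-dimethylaminobenzaldehyde. Inhibition used IFN-γ-treated and untreated DMSO wells as references.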

Each structure is given as a SMILES string.

A word on the IC50: it is the concentration that inhibits the measured activity by half.

Regarding `O=S(=O)(Nc1nc2ccccc2nc1OC(C1CCCCC1)C(F)(F)F)c1ccccc1Cl` (stereo not shown) [Compound 118, 2-chloro-N-[3-(1-cyclohexyl-2,2,2-trifluoroethoxy)-quinoxalin-2-yl]benzenesulfonamide], the IC50 was below 1 µM.

On to `Cn1c(C(Oc2nc3ccccc3nc2NS(=O)(=O)c2cccc(Cl)c2Cl)C(F)(F)F)cc2ccccc21` (stereo not shown) [Compound 103, 2,3-dichloro-N-{3-[2,2,2-trifluoro-1-(1-methyl-1H-indol-2-yl)ethoxy]quinoxalin-2-yl}benzenesulfonamide], for which the IC50 was below 1 µM.

Regarding `O=S(=O)(Nc1nc2ccccc2nc1OCc1cccnc1)c1cccc(Cl)c1Cl` [Compound 6, 2,3-dichloro-N-{3-[(pyridin-3-yl)methoxy]quinoxalin-2-yl}-benzenesulfonamide], the IC50 fell in the range of 1 to 10 µM.

For `CCCS(=O)(=O)Nc1nc2ccccc2nc1OC(C(F)(F)F)C1(C)CCN(S(C)(=O)=O)CC1` (stereo not shown) [Compound 357, N-{3-[2,2,2-trifluoro-1-(1-methanesulfonyl-4-methylpiperidin-4-yl)ethoxy]quinoxalin-2-yl}propane-1-sulfonamide], the IC50 was below 1 µM. Consider `CCCS(=O)(=O)Nc1nc2ccccc2nc1OCc1cnc(C)s1` [Compound 345, N-{3-[(2-methylthiazol-5-yl)methoxy]quinoxalin-2-yl}-propane-1-sulfonamide], for which the IC50 was in the range of 1 to 10 µM. The same measure for `N#Cc1ccc(C(Oc2nc3ccccc3nc2NS(=O)(=O)c2ccccc2Cl)C(F)(F)F)cc1` (stereo not shown) [Compound 42, 2-chloro-N-{3-[2,2,2-trifluoro-1-(4-cyanophenyl)ethoxy]-quinoxalin-2-yl}benzenesulfonamide]: below 1 µM; for `CCCNS(=O)(=O)Nc1nc2ccccc2nc1OC(c1ccc(C)nc1)C(F)(F)F` (stereo not shown) [Compound 280, N-{3-[2,2,2-trifluoro-1-(6-methylpyridin-3-yl)ethoxy]-quinoxalin-2-yl}-N′-propyl-sulfuric diamide]: below 1 µM; for `Cc1noc(C)c1S(=O)(=O)Nc1nc2ccccc2nc1OC(c1cc2ccccc2n1C)C(F)(F)F` (stereo not shown) [Compound 128, 3,5-dimethyl-N-{3-[2,2,2-trifluoro-1-(1-methyl-1H-indol-2-yl)ethoxy]quinoxalin-2-yl}isoxazole-4-sulfonamide]: below 1 µM. The value for `O=S(=O)(Nc1nc2ccccc2nc1OC(c1cncs1)C(F)(F)F)NC1CC1` (stereo not shown) [Compound 286, N-{3-[2,2,2-trifluoro-1-(thiazol-5-yl)ethoxy]quinoxalin-2-yl}-N′-cyclopropyl-sulfuric diamide] was below 1 µM; that for `Cc1ccc(C(Oc2nc3ccccc3nc2NS(=O)(=O)CC2CC2)C(F)(F)F)cn1` (stereo not shown) [Compound 305, 1-cyclopropyl-N-{3-[2,2,2-trifluoro-1-(6-methylpyridin-3-yl)ethoxy]quinoxalin-2-yl}methanesulfonamide] was below 1 µM. The value for `Cc1nn(C)c(Cl)c1S(=O)(=O)Nc1nc2ccccc2nc1OC(c1ccc(C#N)cc1)C(F)(F)F` (stereo not shown) [Compound 200, 5-chloro-N-{3-[1-(4-cyanophenyl)-2,2,2-trifluoroethoxy]-quinoxalin-2-yl}-1,3-dimethyl-1H-pyrazole-4-sulfonamide] was below 1 µM. In the case of `CC(C)CS(=O)(=O)Nc1nc2ccccc2nc1OC(c1cccnc1)C(F)(F)F` (stereo not shown) [Compound 180, 2-methyl-N-{3-[2,2,2-trifluoro-1-(pyridin-3-yl)ethoxy]-quinoxalin-2-yl}propane-1-sulfonamide], the IC50 is below 1 µM. Regarding `O=S(=O)(Nc1nc2ccccc2nc1OC(c1cccnc1)C(F)(F)F)c1cc(F)cc(F)c1` (stereo not shown) [Compound 153, 3,5-difluoro-N-{3-[2,2,2-trifluoro-1-(pyridin-3-yl)ethoxy]-quinoxalin-2-yl}benzenesulfonamide], the IC50 is below 1 µM.

For the molecule `Cc1ccc(C(Oc2nc3ccccc3nc2NS(=O)(=O)c2c(C)nn(C)c2Cl)C(F)(F)F)cn1` (stereo not shown) [Compound 69, 5-chloro-1,3-dimethyl-N-{3-[2,2,2-trifluoro-1-(6-methylpyridin-3-yl)ethoxy]quinoxalin-2-yl}-1H-pyrazole-4-sulfonamide], the IC50 is below 1 µM. As for `O=S(=O)(CC1CC1)Nc1nc2ccccc2nc1OC(c1cccnc1)C(F)(F)F` (stereo not shown) [Compound 303, 1-cyclopropyl-N-{3-[2,2,2-trifluoro-1-(pyridin-3-yl)-ethoxy]quinoxalin-2-yl}methanesulfonamide], the IC50 was below 1 µM. The value for `O=S(=O)(Nc1nc2ccccc2nc1OC(c1cccnc1)C(F)(F)F)NC1CC1` (stereo not shown) [Compound 189, N-cyclopropyl-N′-{3-[2,2,2-trifluoro-1-(pyridin-3-yl)-ethoxy]quinoxalin-2-yl}sulfuric diamide] was below 1 µM; that for `Cc1noc(C)c1S(=O)(=O)Nc1nc2ccccc2nc1OC(c1ccc(C#N)cc1)C(F)(F)F` (stereo not shown) [Compound 201, N-{3-[1-(4-cyanophenyl)-2,2,2-trifluoroethoxy]quinoxalin-2-yl}-3,5-dimethylisoxazole-4-sulfonamide] was below 1 µM.

For the molecule `N#Cc1cccc(C(Oc2nc3ccccc3nc2NS(=O)(=O)c2ccccc2Cl)C(F)(F)F)c1` (stereo not shown) [Compound 82, 2-chloro-N-{3-[2,2,2-trifluoro-1-(3-cyanophenyl)ethoxy]-quinoxalin-2-yl}benzenesulfonamide], the IC50 was below 1 µM. The same measure for `O=S(=O)(Nc1nc2ccccc2nc1OC(c1ccsc1)C(F)(F)F)c1cccc(Cl)c1Cl` (stereo not shown) [Compound 101, 2,3-dichloro-N-{3-[2,2,2-trifluoro-1-(thiophen-3-yl)-ethoxy]quinoxalin-2-yl}benzenesulfonamide]: below 1 µM; for `COCOc1ccc(C(Oc2nc3ccccc3nc2NS(=O)(=O)c2ccccc2Cl)C(F)(F)F)cc1` (stereo not shown) [Compound 56, 2-chloro-N-{3-[2,2,2-trifluoro-1-(4-methoxymethoxyphenyl)-ethoxy]quinoxalin-2-yl}benzenesulfonamide]: below 1 µM; for `CCCCS(=O)(=O)Nc1nc2ccccc2nc1OC(c1cccnc1)C(F)(F)F` (stereo not shown) [Compound 191, N-{3-[2,2,2-trifluoro-1-(pyridin-3-yl)ethoxy]quinoxalin-2-yl}butane-1-sulfonamide]: below 1 µM. The value for `CCCS(=O)(=O)Nc1nc2ccccc2nc1OC(c1cccnc1)C1(F)CCOCC1` (stereo not shown) [Compound 94, N-{3-[4-fluorotetrahydropyran-4-yl(pyridin-3-yl)methoxy]-quinoxalin-2-yl}propane-1-sulfonamide] was below 1 µM. The value for `O=S(=O)(Nc1nc2ccccc2nc1OC(c1cnc(Br)s1)C(F)(F)F)c1ccccc1Cl` (stereo not shown) [Compound 126, 2-chloro-N-{3-[2,2,2-trifluoro-1-(2-bromothiazol-5-yl)-ethoxy]quinoxalin-2-yl}benzenesulfonamide] was below 1 µM; that for `Cn1c(C(Oc2nc3ccccc3nc2NS(=O)(=O)c2ccccc2Cl)C(F)(F)F)cc2ccccc21` (stereo not shown) [Compound 127, 2-chloro-N-{3-[2,2,2-trifluoro-1-(1-methyl-1H-indol-2-yl)-ethoxy]quinoxalin-2-yl}benzenesulfonamide] was below 1 µM. On to `O=S(=O)(Nc1nc2ccccc2nc1OC(c1cnc(Cl)s1)C(F)(F)F)c1ccccc1Cl` (stereo not shown) [Compound 110, 2-chloro-N-{3-[2,2,2-trifluoro-1-(2-chlorothiazol-5-yl)-ethoxy]quinoxalin-2-yl}benzenesulfonamide], for which the IC50 was below 1 µM. The same measure for `O=S(=O)(Nc1nc2ccccc2nc1OC(c1cn(CC2CC2)cn1)C(F)(F)F)c1ccccc1Cl` (stereo not shown) [Compound 112, 2-chloro-N-{3-[2,2,2-trifluoro-1-(1-cyclopropylmethyl-1H-imidazol-4-yl)ethoxy]quinoxalin-2-yl}benzenesulfonamide]: below 1 µM; for `CC(C)(C(Oc1nc2ccccc2nc1NS(=O)(=O)c1ccccc1Cl)c1cccnc1)S(C)(=O)=O` (stereo not shown) [Compound 80, 2-chloro-N-{3-[2-methanesulfonyl-2-methyl-1-(pyridin-3-yl)-propoxy]quinoxalin-2-yl}benzenesulfonamide]: below 1 µM; for `O=S(=O)(Nc1nc2ccccc2nc1OC(c1cccnc1)C1CCOCC1)c1ccccc1Cl` (stereo not shown) [Compound 73, 2-chloro-N-{3-[tetrahydropyran-4-yl(pyridin-3-yl)methoxy]-quinoxalin-2-yl}benzenesulfonamide]: below 1 µM.

As for `O=S(=O)(Nc1nc2ccccc2nc1OCc1ccc2ccccc2c1)c1ccc(C(F)(F)F)cc1` [Compound 23, 4-(trifluoromethyl)-N-{3-[(2-naphthyl)methoxy]quinoxalin-2-yl}benzenesulfonamide], the IC50 was below 1 µM. The value for `O=S(=O)(Nc1nc2ccccc2nc1OC(c1ccc(C2CC2)nc1)C(F)(F)F)c1ccccc1Cl` (stereo not shown) [Compound 89, 2-chloro-N-{3-[2,2,2-trifluoro-1-(6-cyclopropylpyridin-3-yl)ethoxy]quinoxalin-2-yl}benzenesulfonamide] was below 1 µM; that for `CCCS(=O)(=O)Nc1nc2ccccc2nc1OC(c1ccc(CN(C)C)cc1)C(F)(F)F` (stereo not shown) [Compound 197, N-{3-[1-(4-((dimethylamino)methyl)phenyl)-2,2,2-trifluoroethoxy]quinoxalin-2-yl}propane-1-sulfonamide] was below 1 µM. The same measure for `Cc1nn(C)c(Cl)c1S(=O)(=O)Nc1nc2ccccc2nc1OC(c1cncs1)C(F)(F)F` (stereo not shown) [Compound 186, 5-chloro-1,3-dimethyl-N-{3-[2,2,2-trifluoro-1-(thiazol-5-yl)ethoxy]quinoxalin-2-yl}-1H-pyrazole-4-sulfonamide]: below 1 µM; for `O=S(=O)(Nc1nc2ccccc2nc1OC(c1cccnc1)c1cncs1)c1ccccc1Cl` (stereo not shown) [Compound 243, 2-chloro-N-{3-[pyridin-3-yl(thiazol-5-yl)methoxy]-quinoxalin-2-yl}benzenesulfonamide]: below 1 µM; for `Cc1nn(C)c(Cl)c1S(=O)(=O)Nc1nc2ccccc2nc1OC(c1ccc(CN(C)C)cc1)C(F)(F)F` (stereo not shown) [Compound 203, 5-chloro-N-{3-[1-(4-((dimethylamino)methyl)phenyl)-2,2,2-trifluoroethoxy]quinoxalin-2-yl}-1,3-dimethyl-1H-pyrazole-4-sulfonamide]: below 1 µM.
